# Measurements as given in US8796217B2, “Use of transesterified olive oil in the cosmetic field” (Hallstar Italia S.R.L., priority 2008, dated 2014).
# Assays:
# [1] = tested on: Reconstructed Human Epidermis (RHE) keratinocytes; assay: MTT assay of keratinocyte vitality on the RHE; assay type: cell-based; conditions: MTT assay on RHE at 24 hour instant
# Description: Keratinocyte vitality was ascertained using the MTT assay: MTT salt (3-(4,5-dimetil-tiaol-2-il)-2,5 diphenyltetrazolium bromide) may be reduced through the mitochondrial enzyme succinate-dehydrogenase found in living cells. The reduction product, formazan crystals, may be quantified by optic density at […] and is proportional to the number of living cells. The MTT assay was performed on the RHE at the 24 hour instant.
# [2] = Transepidermal water loss (TEWL) after topical application in volunteers; assay type: in vivo, human; conditions: 5% ingredient applied topically, ten volunteers
# Text: The clinical efficiency of bio-compatible liquid crystals generated by cetearyl-olivate, sorbitan-olivate was clinically verified. Firstly, its skin biocompatibility was verified in a study on its effect on transepidermal water loss (TEWL) with respect to other lipidic compositions. TEWL is a convalidated method for assessing the skin permeability barrier function (Fluhr, 2006). Ten volunteers have applied topically identical concentrations (5%) of the following ingredients: cetearyl-olivate, sorbitan-olivate; cetearyl alcohol, cetearyl-glucoside and poliglyceril-3 methylglucose distearate. The results—see FIG. 4—have shown that the application of cetearyl-olivate, sorbitan-olivate reduced the increase of TEWL by 29% over control formulae (FIG. 2).
Molecule,Cell vitality (%) [1] [%],induced TEWL / water loss following application [2]
"Cn1c(=O)c2c(ncn2C)n(C)c1=O [Control (pure caffeine), caffeine]",100,
poliglyceril-3 methylglucose distearate,,activate excessive water loss following application
